Target: NaV 1.8 channel (Homo sapiens, UniProt Q9Y5Y9)
Assay: Activity against NaV 1.8 channel (optical membrane potential assay)
Assay type: cell-based
Procedure, shortened: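 FRET membrane-potential assay (coumarin CC2-DMPE donor, oxonol DiSBAC2(3) acceptor plus veratridine) on VIPR; compound added with oxonol for 20–30 min before Na+ add-back stimulation. Activity from background-subtracted 460/580 nm ratio change (baseline 2–7 s, response 15–24 s) relative to tetracaine positive and drug-free negative controls.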

Sequence of NaV 1.8 channel (Q9Y5Y9 whole entry): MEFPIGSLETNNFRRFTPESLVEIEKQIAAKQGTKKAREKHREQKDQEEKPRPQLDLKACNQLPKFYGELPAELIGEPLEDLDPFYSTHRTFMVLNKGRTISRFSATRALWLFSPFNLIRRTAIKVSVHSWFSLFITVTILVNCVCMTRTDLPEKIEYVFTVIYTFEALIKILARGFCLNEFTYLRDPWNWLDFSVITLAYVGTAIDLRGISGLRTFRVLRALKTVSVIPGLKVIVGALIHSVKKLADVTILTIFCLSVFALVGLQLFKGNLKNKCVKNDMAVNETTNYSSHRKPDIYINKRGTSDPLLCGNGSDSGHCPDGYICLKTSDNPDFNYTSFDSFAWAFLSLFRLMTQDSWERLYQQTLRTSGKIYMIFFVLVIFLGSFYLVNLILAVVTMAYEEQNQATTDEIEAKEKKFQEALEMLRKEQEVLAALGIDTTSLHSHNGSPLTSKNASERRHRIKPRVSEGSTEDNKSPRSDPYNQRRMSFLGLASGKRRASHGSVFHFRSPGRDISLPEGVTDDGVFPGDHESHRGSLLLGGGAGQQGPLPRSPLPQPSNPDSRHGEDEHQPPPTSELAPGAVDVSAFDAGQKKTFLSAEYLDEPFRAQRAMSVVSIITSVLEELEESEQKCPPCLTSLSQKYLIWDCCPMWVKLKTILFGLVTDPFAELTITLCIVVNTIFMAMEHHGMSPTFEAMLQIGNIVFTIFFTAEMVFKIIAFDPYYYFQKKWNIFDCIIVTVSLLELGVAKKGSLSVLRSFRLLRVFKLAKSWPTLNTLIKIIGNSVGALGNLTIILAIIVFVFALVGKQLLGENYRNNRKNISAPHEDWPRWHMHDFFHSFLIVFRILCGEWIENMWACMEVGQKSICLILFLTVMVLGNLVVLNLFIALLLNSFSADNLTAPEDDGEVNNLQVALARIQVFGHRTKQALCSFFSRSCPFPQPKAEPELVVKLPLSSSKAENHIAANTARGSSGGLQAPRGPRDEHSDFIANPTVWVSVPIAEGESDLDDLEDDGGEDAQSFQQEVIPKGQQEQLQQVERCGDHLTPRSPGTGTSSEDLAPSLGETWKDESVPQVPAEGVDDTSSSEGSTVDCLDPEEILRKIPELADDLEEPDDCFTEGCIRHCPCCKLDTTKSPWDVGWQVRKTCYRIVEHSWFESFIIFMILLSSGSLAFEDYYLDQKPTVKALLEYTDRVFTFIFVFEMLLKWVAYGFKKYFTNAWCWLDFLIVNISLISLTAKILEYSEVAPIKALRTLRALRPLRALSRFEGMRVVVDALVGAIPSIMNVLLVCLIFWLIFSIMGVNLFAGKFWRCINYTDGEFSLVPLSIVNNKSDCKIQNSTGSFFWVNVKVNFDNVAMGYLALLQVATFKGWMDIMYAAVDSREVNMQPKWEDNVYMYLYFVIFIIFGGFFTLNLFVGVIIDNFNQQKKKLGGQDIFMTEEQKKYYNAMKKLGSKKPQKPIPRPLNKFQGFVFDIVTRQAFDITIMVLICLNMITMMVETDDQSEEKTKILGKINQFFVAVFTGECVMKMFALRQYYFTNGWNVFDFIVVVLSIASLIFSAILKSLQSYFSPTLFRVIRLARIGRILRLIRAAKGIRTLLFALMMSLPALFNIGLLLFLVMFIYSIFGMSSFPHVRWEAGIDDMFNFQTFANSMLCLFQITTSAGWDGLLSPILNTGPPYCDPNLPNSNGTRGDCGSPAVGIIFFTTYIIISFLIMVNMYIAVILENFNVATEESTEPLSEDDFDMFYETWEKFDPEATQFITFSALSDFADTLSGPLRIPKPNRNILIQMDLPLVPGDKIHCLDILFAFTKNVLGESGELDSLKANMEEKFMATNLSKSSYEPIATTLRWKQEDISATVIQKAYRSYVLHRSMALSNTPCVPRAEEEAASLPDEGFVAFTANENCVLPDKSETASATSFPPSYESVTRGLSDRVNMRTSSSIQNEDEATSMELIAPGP

SMILES: COCCOC(=O)NC[C@@H]1CCCN(c2nc(-c3c(O)cccc3F)nc3cc(C)ccc23)C1 [Example 261, 2-Methoxyethyl ((S)-1-(2-(2-fluoro-6-hydroxyphenyl)-7-methylquinazolin-4-yl)piperidin-3-yl)methylcarbamate]
- IC50: 2 to 10 µM

SMILES: CCOC(=O)NC[C@@H]1CCCN(c2nc(-c3c(O)cccc3F)nc3cc(C)ccc23)C1 [Example 262, Ethyl ((S)-1-(2-(2-fluoro-6-hydroxyphenyl)-7-methylquinazolin-4-yl)piperidin-3-yl)methylcarbamate]
- IC50: 2 to 10 µM

SMILES: Cc1ccc2c(N3CCC(NC(=O)C(O)C(C)C)CC3)nc(-c3ccccc3O)nc2c1 (centres unmarked) [Example 264]
- IC50: > 10 µM

SMILES: Cc1ccc2c(N3CCC(NC(=O)C(O)CC(C)C)CC3)nc(-c3ccccc3O)nc2c1 (centres unmarked) [Example 265]
- IC50: > 10 µM

SMILES: Cc1ccc2c(N3CCC(CNC(=O)C(O)C(C)C)CC3)nc(-c3ccccc3O)nc2c1 (centres unmarked) [Example 266]
- IC50: 2 to 10 µM

SMILES: Cc1ccc2c(N3CCC(NC(=O)[C@H](O)CC(C)C)CC3)nc(-c3ccccc3O)nc2c1 [Example 267]
- IC50: > 10 µM

SMILES: Cc1ccc2c(N3CCC(NC(=O)[C@@H](O)CC(C)C)CC3)nc(-c3ccccc3O)nc2c1 [Example 268]
- IC50: > 10 µM

SMILES: Cc1ccc2c(N3CCC(CNC(=O)[C@H](O)C(C)C)CC3)nc(-c3ccccc3O)nc2c1 [Example 269]
- IC50: > 10 µM

SMILES: Cc1ccc2c(N3CCN(C(=O)C(O)CC(C)C)CC3)nc(-c3ccccc3O)nc2c1 (centres unmarked) [Example 270]
- IC50: 2 to 10 µM

SMILES: Cc1ccc2c(N3CCC(C(=O)NCC4CCCO4)CC3)nc(-c3ccccc3O)nc2c1 (centres unmarked) [Example 271]
- IC50: > 10 µM

SMILES: Cc1ccc2c(N3CCC(NC(=O)O[C@@H]4CCOC4)CC3)nc(-c3ccccc3O)nc2c1 [Example 272]
- IC50: 2 to 10 µM

SMILES: Cc1ccc2c(N3CCC(NC(=O)OCC4CCCO4)CC3)nc(-c3ccccc3O)nc2c1 (centres unmarked) [Example 274]
- IC50: 2 to 10 µM

SMILES: Cc1ccc2c(N3CCC(NC(=O)OCC4CCOC4)CC3)nc(-c3ccccc3O)nc2c1 (centres unmarked) [Example 275]
- IC50: 2 to 10 µM

SMILES: Cc1ccc2c(N3CCC(NC(=O)[C@H]4CCCO4)CC3)nc(-c3ccccc3O)nc2c1 [Example 276, (R)-Tetrahydro-furan-2-carboxylic acid {1-[2-(2-hydroxy-phenyl)-7-methyl-quinazolin-4-yl]-piperidin-4-yl}-amide]
- IC50: 2 to 10 µM

SMILES: Cc1ccc2c(N3CCC(NC(=O)[C@@H]4CCCO4)CC3)nc(-c3ccccc3O)nc2c1 [Example 277]
- IC50: 2 to 10 µM

SMILES: Cc1ccc2c(N3CCC(CNC(=O)OCC(C)C)CC3)nc(-c3ccccc3O)nc2c1 [Example 278]
- IC50: > 10 µM

SMILES: Cc1ccc2c(N3CCC(CNC(=O)OC(C)C)CC3)nc(-c3ccccc3O)nc2c1 [Example 279]
- IC50: 2 to 10 µM

SMILES: Cc1ccc2c(N3CCC(NC(=O)O[C@@H]4CO[C@H]5OCC[C@H]54)CC3)nc(-c3ccccc3O)nc2c1 [Example 280]
- IC50: 2 to 10 µM

SMILES: Cc1ccc2c(N3CCC[C@@H](CNC(=O)O[C@H]4CO[C@@H]5OCC[C@@H]54)C3)nc(-c3ccccc3O)nc2c1 [Example 281]
- IC50: 2 to 10 µM

SMILES: Cc1ccc2c(N3CCC[C@@H](NC(=O)OCC(C)C)C3)nc(-c3ccccc3O)nc2c1 [Example 282]
- IC50: < 2 µM

SMILES: Cc1ccc2c(N3CCC(NC(=O)[C@H]4CCCO4)CC3)nc(-c3ccccc3O)nc2c1 [Example 283]
- IC50: < 2 µM

SMILES: Cc1ccc2c(N3CC[C@@H](NC(=O)O[C@H]4CCOC4)C3)nc(-c3ccccc3O)nc2c1 [Example 301, (S)-Tetrahydrofuran-3-yl (R)-1-(2-(2-hydroxyphenyl)-7-methylquinazolin-4-yl)pyrrolidin-3-ylcarbamate]
- IC50: 2 to 10 µM

SMILES: Cc1ccc2c(N3CC[C@@H](NC(=O)[C@H]4CCCO4)C3)nc(-c3ccccc3O)nc2c1 [Example 302, (R,R)-Tetrahydro-furan-2-carboxylic acid {1-[2-(2-hydroxy-phenyl)-7-methyl-quinazolin-4-yl]-pyrrolidin-3-yl}-amide]
- IC50: > 10 µM

SMILES: Cc1ccc2c(N3CC[C@H](NC(=O)O[C@H]4CCOC4)C3)nc(-c3ccccc3O)nc2c1 [Example 304, (S,S)-{1-[2-(2-Hydroxy-phenyl)-7-methyl-quinazolin-4-yl]-pyrrolidin-3-yl}-carbamic acid tetrahydro-furan-3-yl ester]
- IC50: > 10 µM

SMILES: Cc1ccc2c(N3CC[C@@H](CNC(=O)O[C@H]4CCOC4)C3)nc(-c3ccccc3O)nc2c1 [Example 305, (S)-Tetrahydrofuran-3-yl ((S)-1-(2-(2-hydroxyphenyl)-7-methylquinazolin-4-yl)pyrrolidin-3-yl)methylcarbamate]
- IC50: 2 to 10 µM

SMILES: Cc1ccc2c(N3CC[C@H](CNC(=O)O[C@@H]4CCOC4)C3)nc(-c3ccccc3O)nc2c1 [Example 306, (R)-Tetrahydrofuran-3-yl ((R)-1-(2-(2-hydroxyphenyl)-7-methylquinazolin-4-yl)pyrrolidin-3-yl)methylcarbamate]
- IC50: > 10 µM

SMILES: Cc1ccc2c(N3CC[C@H](CNC(=O)O[C@H]4CCOC4)C3)nc(-c3ccccc3O)nc2c1 [Example 307, (S)-Tetrahydrofuran-3-yl ((R)-1-(2-(2-hydroxyphenyl)-7-methylquinazolin-4-yl)pyrrolidin-3-yl)methylcarbamate]
- IC50: > 10 µM

SMILES: Cc1ccc2c(N3CC[C@H](CNC(=O)[C@H]4CCCO4)C3)nc(-c3ccccc3O)nc2c1 [Example 308, (2R)-Tetrahydro-N—(((R)-1-(2-(2-hydroxyphenyl)-7-methylquinazolin-4-yl)pyrrolidin-3-yl)methyl)furan-2-carboxamide]
- IC50: > 10 µM

SMILES: Cc1ccc2c(N3CC[C@@H](NC(=O)OCc4ccccc4)C3)nc(-c3ccccc3O)nc2c1 [Example 309, (R)-{1-[2-(2-Hydroxy-phenyl)-7-methyl-quinazolin-4-yl]-pyrrolidin-3-yl}-carbamic acid benzyl ester]
- IC50: < 2 µM

SMILES: Cc1ccc2c(N3CC[C@@H](CNC(=O)[C@H]4CCCO4)C3)nc(-c3ccccc3O)nc2c1 [Example 310, (2R)-Tetrahydro-N—(((S)-1-(2-(2-hydroxyphenyl)-7-methylquinazolin-4-yl)pyrrolidin-3-yl)methyl)furan-2-carboxamide]
- IC50: 2 to 10 µM

SMILES: Cc1ccc2c(N3CC[C@@H](CNC(=O)C4CC4)C3)nc(-c3ccccc3O)nc2c1 [Example 311, N—(((S)-1-(2-(2-Hydroxyphenyl)-7-methylquinazolin-4-yl)pyrrolidin-3-yl)methyl)cyclopropanecarboxamide]
- IC50: < 2 µM

SMILES: Cc1ccc2c(N3CC[C@@H](NC(=O)C4CC4)C3)nc(-c3ccccc3O)nc2c1 [Example 312, (R)-Cyclopropanecarboxylic acid {1-[2-(2-hydroxy-phenyl)-7-methyl-quinazolin-4-yl]-pyrrolidin-3-yl}-amide]
- IC50: 2 to 10 µM

SMILES: Cc1ccc2c(N3CC[C@@H](NC(=O)OCC4CCCCO4)C3)nc(-c3ccccc3O)nc2c1 (stereo partly drawn) [Example 314, (Tetrahydro-2H-pyran-2-yl)methyl (R)-1-(2-(2-hydroxyphenyl)-7-methylquinazolin-4-yl)pyrrolidin-3-ylcarbamate]
- IC50: 2 to 10 µM

SMILES: Cc1ccc2c(N3CC[C@@H](NC(=O)C4CCC(=O)N4)C3)nc(-c3ccccc3O)nc2c1 (stereo partly drawn) [Example 315, (R)-5-Oxo-pyrrolidine-2-carboxylic acid {1-[2-(2-hydroxy-phenyl)-7-methyl-quinazolin-4-yl]-pyrrolidin-3-yl}-amide]
- IC50: > 10 µM

SMILES: Cc1ccc2c(N3CC[C@@H](NC(=O)C4CCOCC4)C3)nc(-c3ccccc3O)nc2c1 [Example 316, Tetrahydro-N—((R)-1-(2-(2-hydroxyphenyl)-7-methylquinazolin-4-yl)pyrrolidin-3-yl)-2H-pyran-4-carboxamide]
- IC50: > 10 µM

SMILES: Cc1ccc2c(N3CC[C@@H](NC(=O)CC4CCOCC4)C3)nc(-c3ccccc3O)nc2c1 [Example 317, 2-(Tetrahydro-2H-pyran-4-yl)-N—((R)-1-(2-(2-hydroxyphenyl)-7-methylquinazolin-4-yl)pyrrolidin-3-yl)acetamide]
- IC50: 2 to 10 µM

SMILES: Cc1ccc2c(N3CC[C@@H](NC(=O)CCc4ccccn4)C3)nc(-c3ccccc3O)nc2c1 [Example 318, N—((R)-1-(2-(2-Hydroxyphenyl)-7-methylquinazolin-4-yl)pyrrolidin-3-yl)-3-(pyridin-2-yl)propanamide]
- IC50: > 10 µM

SMILES: Cc1ccc2c(N3CC[C@@H](NC(=O)OCc4cccnc4)C3)nc(-c3ccccc3O)nc2c1 [Example 319, (Pyridin-3-yl)methyl (R)-1-(2-(2-hydroxyphenyl)-7-methylquinazolin-4-yl)pyrrolidin-3-ylcarbamate]
- IC50: 2 to 10 µM

SMILES: Cc1ccc2c(N3CC[C@@H](NC(=O)OCc4ccncc4)C3)nc(-c3ccccc3O)nc2c1 [Example 320, (Pyridin-4-yl)methyl (R)-1-(2-(2-hydroxyphenyl)-7-methylquinazolin-4-yl)pyrrolidin-3-ylcarbamate]
- IC50: 2 to 10 µM

SMILES: Cc1ccc2c(N3CC[C@@H](NC(=O)OCc4cccc5c4OCO5)C3)nc(-c3ccccc3O)nc2c1 [Example 321, (Benzo[d][1,3]dioxol-7-yl)methyl (R)-1-(2-(2-hydroxyphenyl)-7-methylquinazolin-4-yl)pyrrolidin-3-ylcarbamate]
- IC50: > 10 µM

SMILES: Cc1ccc2c(N3CC[C@@H](NC(=O)CCc4cccnc4)C3)nc(-c3ccccc3O)nc2c1 [Example 322, N—((R)-1-(2-(2-Hydroxyphenyl)-7-methylquinazolin-4-yl)pyrrolidin-3-yl)-3-(pyridin-3-yl)propanamide]
- IC50: > 10 µM

SMILES: Cc1ccc2c(N3CC[C@@H](NC(=O)CCC4CCCC4)C3)nc(-c3ccccc3O)nc2c1 [Example 323, (R)-3-Cyclopentyl-N-{1-[2-(2-hydroxy-phenyl)-7-methyl-quinazolin-4-yl]-pyrrolidin-3-yl}-propionamide]
- IC50: > 10 µM

SMILES: Cc1ccc2c(N3CC[C@@H](NC(=O)CCN4CCCCC4)C3)nc(-c3ccccc3O)nc2c1 [Example 324]
- IC50: > 10 µM

SMILES: Cc1ccc2c(N3CC[C@@H](NC(=O)c4cccc(OC(F)(F)F)c4)C3)nc(-c3ccccc3O)nc2c1 [Example 325, N—((R)-1-(2-(2-Hydroxyphenyl)-7-methylquinazolin-4-yl)pyrrolidin-3-yl)-3-(trifluoromethoxy)benzamide]
- IC50: > 10 µM

— US7928107B2, “Quinazolines useful as modulators of ion channels” (Vertex Pharmaceuticals Incorporated, priority 2004, dated 2011)
